In patent US8697692B2, “Pyrrolo [3,2-c] pyridine-4-one 2-indolinone protein kinase inhibitors” (Shanghai Hengrui Pharmaceutical Co., Ltd., priority 2006, dated 2014):

Each compound was assayed on A431 cell (assay: Cell Proliferation Inhibition EGFR Assay (SRB method)). Details: Homo sapiens, A-431, 72 h, read-out: IC50 (A431).
Format: cell-based, homo sapient
From the text: The following in vitro assay may be used to determine the level of activity and effect of different compounds of the present invention on the proliferation inhibition (cell toxic) of […] growth factor receptor (EGFR) high expressing homo […] cancer cell-A431 cell. The cellular assay described here measure the compounds of their anti-angiogenesis and proliferation inhibition activity and effect through EGFR on the cancer cells in vitro. The effect and activity is represented by the IC50 value that kills the cancer cell. […] The homo […] highly express EGFR are chosen and seeded to 96-well cell culture plate at a suitable concentration (exp 5000 cells/ml medium). The cells then are cultured in carbon dioxide (CO2) incubator till when they confluence to about 85%. Then, the cell culture medium is replaced by fresh one with tested compounds added in it at serial concentrations (general 6 to 7 concentrations). Then the cells are put back to the culture and cultured for continuous 72 hours. 72 hours later, the cell exposed to compounds and control cell are assayed for their proliferation using Sulforhodamine B (SRB) method. Compounds IC50 on tested cells are calculated by the data of inhibition rates of serial concentrations of the tested compounds. • a. Dimethyl sulfoxide (Sinophma chemical reagent company, catalog No. T20050806) • b. A431 cells (Purchased from Institute of biochemistry and cell biology) • c. Falcon 100 mm cell culture plates (Baton Dickison Labware, Baton Dickison and company, • Catalog No. 18677) • d. coming 96-well culture cluster (Corning Incorporated, Catalog No. 3599) • e. Fisher Pipette (Fisher scientific, Catalog No. 03-692-164) • f. DMEM/F12 cell medium (Gibco, Catalog No. 12400-024) • g. Fetal bovine serum, origin from Australia (Gibco, Catalog No. 10099-141) • h. […] Sulforhodamine B (Sigma, Catalog No. 3520-42-1) • k. Acetic Acid (Sinophma chemical reagent company, Catalog No. T20060508) • l. Trichloroacetic Acid (Sinophma chemical reagent company, Catalog No. T20060305) • m. Tris base (Amresco, Catalog No. 0826) • n. Class II A/B3 Biological safety cabinet (ThermoForma Catalog No. HB0053 03) • o. Series II water jacketed CO2 incubator (ThermoForma Model: 3111) • p. Centrifuge (Fisher Scientific Marathon 8 k, Catalog No. 0027-02) • q. Novastar Plate reader (BMG Labtech, Catalog No. 700 0081) • r. Orbital Shaker (Qilinbeier, Catalog No. TS-1) Protocol: […] Growing seeded 96-well plates at 37° C., 5% CO2, till 85% confluence. • 4. Prepare compounds stock solution, using DMSO solve candidate compounds to a concentration of 20 mM. […] Use cell culture medium (in this case, DMEM/F12+10% FBS) to dilute the compounds solution prepared above. Each DMSO serial concentration compound solution is diluted by 20 times with culture medium by adding 5 μl DMSO compound solution to 95 μl culture medium, then mix well by vortex. This promise that the DMSO concentration at that the A431 cell will exposed to will not surpass 0.5%. • 6. […] Each well added 180 μl medium, then add 20 μl medium solution of tested compounds prepared at step 5 to each well. For control group cell, add 20 μl culture medium containing 0.5% pure DMSO. […] Each 96-well plate, we can test 3 compounds with a control cell group. • 7. Put the culture plates back to incubator, culture for 72 hours at 37° C., 5% CO2. • 8. 72 hours later, remove cultures from incubator into sterile work area. • 9. Prepare fixative (50% Trichloroacetic Acid-TCA) by adding reagent grade water to the TCA, fix the cells by gently layering […] of cold TCA solution on top of the growth medium. • 10. Incubate plates for 1 hour at 4° C. and then rinse with water several times to remove TCA, serum proteins, etc. Plates are air dried and stored until use. Bland background optical density is measured in wells incubated with growth medium without cells. • 11. Use 10% acetic acid solution to prepare 0.4% Sulforhodamine B solution. Add 50 μl sulforhodamine B solution to each well of 96-well plates. • 12. […]
Work on `Cc1c(/C=C2\C(=O)Nc3ccc(F)cc32)[nH]c2c1C(=O)N(CCN1CCOCC1)CC2` [Example 15, 2-(5-Fluoro-2-oxo-1,2-dihydro-indol-3-ylidenemethyl)-3-methyl-5-(2-morpholin-4-yl-ethyl)-1,5,6,7-tetrahydro-pyrrolo[3,2-c]pyridin-4-one] yielded an IC50 of 1350 nM.

Same assay, conditions: Homo sapiens, A-431; A431 cells, 72 hours exposure, Sulforhodamine B; read-out: IC50 (A431)
`CCN(CC)CCN1CCc2[nH]c(/C=C3\C(=O)Nc4c(NC(C)=O)cc(F)cc43)c(C)c2C1=O` [Example 6, N-{3-[5-(2-Diethylamino-ethyl)-3-methyl-4-oxo-4,5,6,7-tetrahydro-1H-pyrrolo[3,2-c]pyridine-2-ylmethylene]-5-fluoro-2-oxo-2,3-dihydro-1H-indol-7-yl}-acetamide] gave an IC50 of 1380 nM. `Cc1c(/C=C2\C(=O)Nc3ccc(NS(C)(=O)=O)cc32)[nH]c2c1C(=O)N(CCN1CCOCC1)CC2` [Example 22, N-{3-[3-Methyl-5-(2-mopholin-4-yl-ethyl)-4-oxo-4,5,6,7-tetrahydro-1H-pyrrolo[3,2-c]pyridine-2-ylmethylene]-2-oxo-2,3-dihydro-1H-indol-5-yl}-methanesulfonamide] gave an IC50 of 2850 nM. With `Cc1c(/C=C2\C(=O)Nc3cccc(-c4cccc(Cl)c4F)c32)[nH]c2c1C(=O)N(CCN1CCOCC1)CC2` [Example 48, 2-[4-(3-Chloro-2-fluoro-phenyl)-2-oxo-1,2-dihydro-indol-3-ylidenemethyl]-3-methyl-5-(2-morpholin-4-yl-ethyl)-1,5,6,7-tetrahydro-pyrrolo[3,2-c]pyridin-4-one] the IC50 was 6110 nM. `Cc1c(/C=C2\C(=O)Nc3cc(NC(=O)CO)c(F)cc32)[nH]c2c1C(=O)N(CCN1CCCCC1)CC2` [Example 61, N-{5-Fluoro-3-[3-methyl-4-oxo-5-(2-piperidin-1-yl-ethyl)-4,5,6,7-tetrahydro-1H-pyrrolo[3,2-c]pyridin-2-ylmethylene]-2-oxo-2,3-dihydro-1H-indol-6-yl}-2-hydroxy-acetamide] was tested, and the IC50 was 1250 nM. `Cc1c(/C=C2\C(=O)Nc3cccc(-c4c(F)cccc4F)c32)[nH]c2c1C(=O)N(CCN1CCCCC1)CC2` [Example 63, 2-[4-(2,6-Difluoro-phenyl)-2-oxo-1,2-dihydro-indol-3-ylidenemethyl]-3-methyl-5-(2-piperidin-1-yl-ethyl)-1,5,6,7-tetrahydro-pyrrolo[3,2-c]pyridin-4-one] showed an IC50 of 530 nM. `O=C(CO)Nc1cc2c(cc1F)/C(=C/c1[nH]c3c(c1-c1ccc(F)cc1)C(=O)NCC3)C(=O)N2` [Example 65, N-{5-Fluoro-3-[3-(4-fluoro-phenyl)-4-oxo-4,5,6,7-tetrahydro-1H-pyrrolo[3,2-c]pyridin-2-ylmethylene]-2-oxo-2,3-dihydro-1H-indol-6-yl}-2-hydroxy-acetamide] gave an IC50 of 3060 nM. Compound `COCC(=O)Nc1cc2c(cc1F)/C(=C/c1[nH]c3c(c1-c1ccc(F)cc1)C(=O)NCC3)C(=O)N2` [Example 67, N-{5-Fluoro-3-[3-(4-fluoro-phenyl)-4-oxo-4,5,6,7-tetrahydro-1H-pyrrolo[3,2-c]pyridin-2-ylmethylene]-2-oxo-2,3-dihydro-1H-indol-6-yl}-2-methoxy-acetamide] has an IC50 of 2030 nM. Work on `Cc1c(/C=C2\C(=O)Nc3cccc(CCO)c32)[nH]c2c1C(=O)N(CCN1CCCC1)CC2` [Example 75, 2-[4-(2-Hydroxy-ethyl)-2-oxo-1,2-dihydro-indol-3-ylidenemethyl]-3-methyl-5-(2-pyrrolidin-1-yl-ethyl)-1,5,6,7-tetrahydro-pyrrolo[3,2-c]pyridin-4-one] yielded an IC50 of 1680 nM. Compound `Cc1c(/C=C2\C(=O)Nc3c(Br)cc(F)cc32)[nH]c2c1C(=O)N(CCN1CCCCC1)CC2` [Example 90, 2-(7-Bromo-5-fluoro-2-oxo-1,2-dihydro-indol-3-ylidenemethyl)-3-methyl-5-(2-piperidin-1-yl-ethyl)-1,5,6,7-tetrahydro-pyrrolo[3,2-c]pyridin-4-one] has an IC50 of 270 nM. Compound `Cc1c(/C=C2\C(=O)Nc3ccc(NC=O)cc32)[nH]c2c1C(=O)N(CCN1CCCCC1)CC2` [Example 91, N-{3-[3-Methyl-4-oxo-5-(2-piperidin-1-yl-ethyl)-4,5,6,7-tetrahydro-1H-pyrrolo[3,2-c]pyridin-2-ylmethylene]-2-oxo-2,3-dihydro-1H-indol-5-yl}-formamide] has an IC50 of 120 nM. In the case of `Cc1c(/C=C2\C(=O)Nc3ncc(Br)cc32)[nH]c2c1C(=O)N(CCN1CCCCC1)CC2` [Example 93, 2-(5-Bromo-2-oxo-1,2-dihydro-pyrrolo[2,3-b]pyridin-3-ylidenemethyl)-3-methyl-5-(2-piperidin-1-yl-ethyl)-1,5,6,7-tetrahydro-pyrrolo[3,2-c]pyridin-4-one], the IC50 is reported as 1660 nM. Work on `Cc1c(/C=C2\C(=O)Nc3cc(NCc4ccc(F)cc4)c(F)cc32)[nH]c2c1C(=O)N(CCN1CCCCC1)CC2` [Example 94, 2-[5-Fluoro-6-(4-fluoro-benzylamino)-2-oxo-1,2-dihydro-indol-3-ylidenemethyl]-3-methyl-5-(2-piperidin-1-yl-ethyl)-1,5,6,7-tetrahydro-pyrrolo[3,2-c]pyridin-4-one] yielded an IC50 of 340 nM.
